The source of these data is patent publication US11390648B2, “Peptide” (HYSENSBIO, priority 2017, dated 2022).

The test has as its system Dspp gene. Kind of test: Dspp mRNA level in human dental pulp cells treated with peptide (real-time PCR). It counts as cell-based. The conditions noted are these: hDPCs, peptide 10 μg/ml, 48 hours; ratio relative to Dspp mRNA level of untreated control; GAPDH internal control; triplicate. The procedure: Human dental pulp cells were separated from wisdom teeth of adults (aged 18-22) at the School of Dentistry, Seoul National University. In detail, all experiments were performed after the approval of the Institutional Review Board and the informed consent from patients. Wisdom teeth were fractured according to a method of Jung HS et al. (J Mol Histol.(2011)) to expose the dental pulps, and dental pulp tissues were separated with forceps. Each of the separated dental pulp tissues was cut into small pieces with a razor blade, put in a 60-mm dish, covered with a coverslip, and then cultured in a Dulbecco's modified Eagle's medium. It has been known that human dental pulp cells can differentiate into odontoblast, osteoblast, cementoblast, and periodontal ligament cells under various conditions (Tissue Eng Part A. 2014 April; 20 (7-8): 1342-51).
Total RNA was extracted from human dental pulp cells (hDPCs), and human bone marrow mesenchymal stem cells (hBMSCs) with TRIzol reagent. 2 μg of the total RNA, 1 μl of reverse transcriptase, and 0.5 μg of oligo (oligo; dT) were used to synthesize cDNA. The synthesized cDNA was used in a real-time polymerase chain reaction. The real-time polymerase chain reaction was performed on an ABI PRISM 7500 sequence detection system (Applied Biosystems) and an SYBR GREEN PCR Master Mix (Takara, Japan). The real-time polymerase chain reaction was performed under conditions of 94° C., 1 min; 95° C., 15 sec; 60° C., 34 sec for 40 cycles. Results were analyzed by a comparative cycle threshold (CT) method. And the used primers are as follows (Table 17).
The human dental pulp cells (hDPCs) cultured in Example 3 were treated with the peptides (concentration of 10 μg/ml) of each group synthesized in Example 1-1, and cultured for 48 hours. Then, mRNA levels of an odontoblast differentiation marker Dspp gene expressed in the human dental pulp cells were measured, and a ratio of the measured Dspp mRNA level relative to a Dspp mRNA level measured in a control group was calculated, respectively (Tables 18 to 33).
The expression level of the Dspp gene was measured through RT-PCR and real-time PCR analysis described in Example 1-4. In this regard, GAPDH gene was used as an internal control. The experiments were performed in triplicate, and then mean values and standard deviations thereof were taken as measured values. The base sequence of the primers is described in Table 17 above.
For the substance “48 (KYKRKRR; Novel peptide) [compound 48]”, the “mRNA level of Dspp gene, Mean” value was determined as 2.602. The figure for “91 (KYQNRRK; Novel peptide) [compound 91]” is 1.913; for “87 (KYKNKKR; Novel peptide) [compound 87]” it is 1.888.

As to “54 (KYQKKRK; Novel peptide) [compound 54]”, the “mRNA level of Dspp gene, Mean” value came out at 1.638. In the case of “73 (KYRNRKK; Novel peptide) [compound 73]”, the “mRNA level of Dspp gene, Mean” value was 2.208.

For “17 (KYKQRKK; Novel peptide) [compound 17]”, the “mRNA level of Dspp gene, Mean” value stood at 7.712. Then “78 (KYRNKRK; Novel peptide) [compound 78]”, with 2.109; and “41 (KYKRRKK; Novel peptide) [compound 41]”, with 2.937; and 7 (KYQRKKR; Novel peptide) [compound 7], with 6.881. For “16 (KYRQKRR; Novel peptide) [compound 16]”, the “mRNA level of Dspp gene, Mean” value is listed as 7.739. For “63 (KYNKKKR; Novel peptide) [compound 63]”, the “mRNA level of Dspp gene, Mean” value is recorded as 2.373.

Regarding “100 (KYNQRRR; Novel peptide) [compound 100]”, the “mRNA level of Dspp gene, Mean” value is listed as 1.599. For the substance “76 (KYRNRRR; Novel peptide) [compound 76]”, the “mRNA level of Dspp gene, Mean” value stood at 2.394. Then “31 (KYQQKKR; Novel peptide) [compound 31]”, with 2.432; and “50 (KYQKRKR; Novel peptide) [compound 50]”, with 1.803. The figure for “39 (KYRRKKR; Novel peptide) [compound 39]” is 3.412; for “45 (KYKRKKK; Novel peptide) [compound 45]” it is 3.051; for “57 (KYNKRKK; Novel peptide) [compound 57]” it is 2.415.

As for “69 (KYNRKKK; Novel peptide) [compound 69]”, the “mRNA level of Dspp gene, Mean” value is given as 1.899. Take “47 (KYKRKKR; Novel peptide) [compound 47]”: the “mRNA level of Dspp gene, Mean” value was 2.439. As for “99 (KYNQRRK; Novel peptide) [compound 99]”, the “mRNA level of Dspp gene, Mean” value is listed as 1.737. The figure for “40 (KYRRKRR; Novel peptide) [compound 40]” is 3.109; for “90 (KYQNRKR; Novel peptide) [compound 90]” it is 1.797. The figure for “88 (KYKNKRR; Novel peptide) [compound 88]” is 1.539. Then “113 (KYRKRKK; Novel peptide) [compound 113]”, with 1.778; and 2 (KYQRRKR; Novel peptide) [compound 2], with 7.171; and “80 (KYRNKRR; Novel peptide) [compound 80]”, with 2.636.

Consider “61 (KYNKKKK; Novel peptide) [compound 61]”, for which the “mRNA level of Dspp gene, Mean” value was found to be 1.909. Take “71 (KYNRKKR; Novel peptide) [compound 71]”: the “mRNA level of Dspp gene, Mean” value worked out at 2.052. As to “108 (KYNNRRR; Novel peptide) [compound 108]”, the “mRNA level of Dspp gene, Mean” value turned out to be 1.495. Then “125 (KYKKKKK; Novel peptide) [compound 125]”, with 2.082.

As to “20 (KYKQRRR; Novel peptide) [compound 20]”, the “mRNA level of Dspp gene, Mean” value is given as 7.553. Then “32 (KYQQKRR; Novel peptide) [compound 32]”, with 2.303; and “117 (KYRKKKK; Novel peptide) [compound 117]”, with 1.929. For the substance “33 (KYRRRKK; Novel peptide) [compound 33]”, the “mRNA level of Dspp gene, Mean” value stood at 3.615.

Regarding “89 (KYQNRKK; Novel peptide) [compound 89]”, the “mRNA level of Dspp gene, Mean” value was determined as 1.635. Then 8 (KYQRKRR; Novel peptide) [compound 8], with 6.531; and “56 (KYQKKRR; Novel peptide) [compound 56]”, with 1.909.

With “15 (KYRQKKR; Novel peptide) [compound 15]”, the “mRNA level of Dspp gene, Mean” value is listed as 6.764. The figure for “18 (KYKQRKR; Novel peptide) [compound 18]” is 7.319; for “85 (KYKNKKK; Novel peptide) [compound 85]” it is 1.838; for “92 (KYQNRRR; Novel peptide) [compound 92]” it is 1.498. The figure for “106 (KYNNRKR; Novel peptide) [compound 106]” is 1.673; for “118 (KYRKKRK; Novel peptide) [compound 118]” it is 2.015. The figure for 9 (KYRQRKK; Novel peptide) [compound 9] is 7.543; for “43 (KYKRRRK; Novel peptide) [compound 43]” it is 2.435; for “98 (KYNQRKR; Novel peptide) [compound 98]” it is 1.479.

Regarding “126 (KYKKKRK; Novel peptide) [compound 126]”, the “mRNA level of Dspp gene, Mean” value came out at 1.798. Consider “46 (KYKRKRK; Novel peptide) [compound 46]”, for which the “mRNA level of Dspp gene, Mean” value came out at 2.733. The figure for “25 (KYQQRKK; Novel peptide) [compound 25]” is 2.491; for “36 (KYRRRRR; Novel peptide) [compound 36]” it is 3.256; for “121 (KYKKRKK; Novel peptide) [compound 121]” it is 2.024.
